Assay results reported in patent US6706686B2, “Inhibition of histone deacetylase as a treatment for cardiac hypertrophy” (The Regents of the University of Colorado, priority 2001, dated 2004).
Entries after “also recorded” stand apart in the source; their conditions may differ.

What was measured:
[1] = test system: acetylated lysine residues / Histone H3 in cardiac myocytes; experiment: Detection of acetylated lysine residues (Western blot, immunofluorescence); type: cell-based, rat; settings: exposure for 24 hours
Description: Cell culture. Ventricular myocytes from one-day-old rats were plated at low density in MEM with 5% calf serum, and studied in serum-free MEM. Cultures were treated with PE (#P6126, Sigma-Aldrich Corp., St. Louis, Mo.), IL-1 (#501-RL, R&D Systems, Minneapolis, Minn.), TSA (#GR-309, BIOMOL Research Laboratories, Inc., Plymouth Meeting, Pa.) or their vehicles (ascorbic acid for PE; bovine serum albumin for IL-1; dimethyl sulfoxide for TSA).
Detection of acetylated lysine residues. Total cell extract was subjected to Western blot analysis using antibodies from Cell Signaling Technology (Beverly, Mass.) (acetylated lysine antibody: #9441, acetylated histone H3 antibody at Lysine 9: #9671, acetylated histone H3 antibody at Lysine 23: #9674, histone H3 antibody: #9712). Nuclear localization of acetylated histone H3 was examined by immunostaining using the same antibodies.

[2] = test system: ANF, αSK-actin, αMyHC, βMyHC RNA in cardiomyocytes; experiment: RNA dot blot of fetal gene program; type: cell-based, rat
Description: FIGS. 5A-B. Treatment of cardiomyocytes with HDAC inhibitors blocks the fetal gene program associated with cardiomyocyte hypertrophy. […] The graphs represent three or more independent experiments.
Dot Blot analysis. Total RNA was isolated from cardiomyocytes that were either untreated, treated with phenylephrine, treated with TSA, or co-treated with phenylephrine and TSA. One microgram of RNA was blotted onto Nitrocellulose (Bio-Rad, Hercules, Calif.) and hybridized at 50° C. for 14 hrs with end-labeled oligos. (ANF, 5′-[…]-3, SEQ ID NO 1; αSK actin5′-[…]-3′, SEQ ID NO2; αMyHC,5′[…]-3′, SEQ ID NO 3; βMyHC5′-[…]-3′, SEQ ID NO 4; GAPDH5′-[…]-3′, SEQ ID NO 5). The blots were washed twice in 2×SSC/0.5% SDS solution and exposed to film (Kodak, Rochester, N.Y.) or phosphoimager (Amersham Bioscience, Sunnyvale, Calif.). The intensity of the hybridization of the probes was measured using ImageQuant® (Amersham Bioscience, Sunnyvale, Calif.).

[3] = test system: ANF in neonatal cardiomyocytes; experiment: ANF chemiluminescence detection, dose response; type: cell-based, rat
Description: FIGS. 4A-C. […] As in the transfection experiments, phenylephrine (100 µM) induces ANF expression over three-fold. […] (FIGS. 4B and 4C) The graphs show a reduction of the chemiluminent detection of ANF in the culture medium with increasing concentrations of the HDAC inhibitors TSA (FIG. 4B) and sodium butyrate (FIG. 4C) when co-cultured with the hypertrophic stimulants FBS, PE or ET-1.
Chemilumenescence. Neonatal cardiomyocytes were seeded onto 96-well plates and treated for 72 hrs. The cells were washed twice in 1×PBS, fixed in 4% paraformaldehyde/1×PBS, and permeabilized with 0.1% Triton-X100. After blocking, the cells were incubated 1 hr. with 10 μg/ml monoclonal anti-ANF antibody (Biodesign). The wells were washed twice with 1% BSA/1× PBS and then incubated for 1 hr. with goat anti-mouse IgG-Fc-HRP (Jackson Labs, […]) at 1:1000 in 1× PBS/1% BSA. Cells were washed twice with 1% BSA/1×PBS, twice with 1× PBS, then blotted dry. Luminol (Pierce, Rockford, Ill.) was added and the chemiluminescence was detected in a Fusion Plate Reader (Perkin Elmer/Packard).

[4] = test system: cardiomyocytes; experiment: Immunostaining for ANF protein and α-actinin (sarcomere); type: cell-based, rat
Description: Immunostaining. Glass coverslips were coated with laminin (Invitrogen, Carlsbad, Calif.) by solublizing laminin in 1× PBS (40 μg/ml), by dipping the coverslips in the solution and by allowing them to air-dry. Cells were treated for 24 hrs, washed, fixed 10 min. with 3.7% formaldehyde, washed with 1× PBS and permeabolized with 1× PBS containing 3% BSA and 0.1% NP-40 (Sigma, St. Louis, Mo.). Primary Antibodies were in 1× PBS containing 3% BSA and 0.1% NP-40 for 30 min, then washed three times in 1× PBS. The secondary FITC or TRITC antibodies (Vector Laboratories, Inc., Burlingame, Calif.) were incubated (1:200) in same buffer solution as the primary antibodies, then washed in 1× PBS, covered and subsequently visualized. Images were captured using a digital camera (Hamamatsu Photonics, Hamamatsu City, Japan).

[5] = test system: rat neonatal cardiomyocytes; experiment: Gene chip array analysis; type: cell-based; settings: two-or-more-fold difference
Description: FIGS. 7A-B. TSA induces the activation of genes that are involved in cardiomyocyte differentiation. […] (FIG. 7B) Four genes were inactivated by phenylephrine and activated by TSA (results from one phenylephrine chip, two phenylephrine/TSA chips, and one TSA chip.)
Gene chip and analysis. RNA was isolated using Trizol (Invitrogen, Carlsbad, Calif.) from untreated, phenylephrine-treated, TSA-treated, and phenylephine/TSA co-treated rat neonatal cardiomyocytes. The RNAs were prepared and hybridized on U34A chips (Affymetrix, Inc., Santa Clara, Calif.) according to Affymetrix protocols. The intensity of hybridization was detected by and changes in gene expression were determined and analyzed by Micro Array Suite 5.0 (Affymetrix, Inc., Santa Clara, Calif.).

[6] = test system: ras transformed cells; settings: Taunton et al., 1996; cited from earlier work

## CC(/C=C/C(=O)NO)=C\[C@@H](C)C(=O)c1ccc(N(C)C)cc1 [TSA, Trichostatin A]
[1]
  protein acetylation (acetylated lysine residues, Histone H3): effectively increased acetylated lysine residues
[2]; TSA treatment
  αMyHC expression: induced the expression of αMyHC; also recorded: stimulated the expression of αMyHC
[2]; phenylephrine 100 μM, TSA 85 nM, sodium butyrate 5 mM, HC-toxin 5 ng/ml
  phenylephrine-induced endogenous ANF RNA expression: prevented the phenylephrine-induced ANF response; also recorded: blocks the accumulation of ANF message
[2]; phenylephrine co-treatment
  phenylephrine-induced αSK-actin expression: suppression of other genes activated by the hypertrophic stimulant; also recorded: lack of gene activation
  phenylephrine-induced βMyHC expression: down-regulating the fetal myosin chain isoform; also recorded: prevented the activation of βMyHC
[3]; FBS, PE, ET-1
  minimal concentration that inhibited the hypertrophic response (ANF) of each growth stimulant: 40 nM
[3]; increasing concentrations
  induction of ANF expression by FBS, PE and ET-1: countered the induction of ANF expression
[3]; very low doses (0.2 nM printed for sodium butyrate)
  ANF expression at very low doses: only a marginal increase
[4]; 24 hrs
  ANF protein accumulation, inhibitor alone: lacked accumulation of ANF protein
[4]; TSA alone
  cell size: did not change size
  organization of the sarcomere (α-actinin), inhibitor alone: lacked organization of the sarcomere
[4]; phenylephrine, serum or ET-1
  organization of the sarcomere with growth stimulants: lacked fully organized sarcomeres
[4]; with phenylephrine or serum
  ANF protein accumulation induced by phenylephrine or serum: dramatically reduced ANF protein accumulation
[5]; genes down-regulated by phenylephrine
  expression of big Tau-microtubule-associated protein, ubiquitin carboxyl-terminal hydrolase, Thy-1 cell-surface glycoprotein, MyHC class I antigen: up-regulated by TSA
[5]; genes up-regulated by phenylephrine
  expression of cytochrome oxidase subunit VIII, mouse T-complex protein, insulin growth factor binding protein-3: down-regulated by TSA
[6]
  acetylation: induce hyperacetylation
  morphology of ras transformed cells: cause reversion of ras transformed cells to normal morphology
